One experiment deals with T1, pig kidney FBPase (Sus scrofa, UniProt P00636).
T1 sequence (P00636 1-338): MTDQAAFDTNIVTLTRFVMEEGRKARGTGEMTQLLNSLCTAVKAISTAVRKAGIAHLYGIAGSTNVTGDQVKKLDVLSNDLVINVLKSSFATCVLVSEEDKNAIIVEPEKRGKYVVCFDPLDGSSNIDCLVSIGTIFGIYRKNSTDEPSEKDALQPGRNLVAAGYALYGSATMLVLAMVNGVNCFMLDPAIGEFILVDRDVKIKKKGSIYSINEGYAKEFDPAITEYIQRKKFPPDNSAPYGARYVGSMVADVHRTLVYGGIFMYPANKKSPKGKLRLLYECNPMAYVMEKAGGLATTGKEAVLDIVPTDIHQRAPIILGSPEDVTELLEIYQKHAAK
The experiment can be described thus: Coupled-enzyme FBPase activity assay. It is filed as biochemical.

Another experiment deals with human liver FBPase. The experiment can be described thus: Inhibition of human liver FBPase by MB05032. It is filed as biochemical. To be noted: MB05032 EC50 (human liver FBPase) vs 4c IC50 (pig kidney FBPase).

The source of these data is article PMC2720136 (Bioorganic & medicinal chemistry, 2009).

Take `Oc1ccc(Nc2nc(-c3ccc(O)cc3)cs2)cc1` [Compound 3b, 4-(4-(4-Hydroxyphenyl)thiazol-2-ylamino)phenol]: the “fold improved inhibitory activity of 3b over 3a” value on pig kidney FBPase (ratio of IC50, 3a vs 3b) stood at 3 fold. `O=[N+]([O-])c1ccc(-c2csc(Nc3ccc(O)cc3)n2)cc1` [Compound 3d, 4-(4-(4-Nitrophenyl)thiazol-2-ylamino)phenol]: the “inhibition with nitro at R5 (in words)” value on pig kidney FBPase (pig kidney FBPase) was “eliminated”. For the molecule `Oc1ccc(-c2csc(Nc3ccccc3O)n2)cc1` [Compound 5b, 2-(4-(4-Hydroxyphenyl)thiazol-2-ylamino)phenol], at pig kidney FBPase (ratio of IC50, 5a vs 5b), the “fold improved inhibition of 5b over 5a” value is on record as around 18 fold. Regarding `O=[N+]([O-])c1cccc(Nc2nc(-c3ccccc3)cs2)c1` [Compound 7a, N-(3-Nitrophenyl)-4-phenylthiazol-2-amine], on pig kidney FBPase (pig kidney FBPase, 300 μM inhibitor), the “inhibitory activity against the enzyme at 300 μM” value is recorded as “no significant inhibitory activity”. On to `O=[N+]([O-])c1ccc(-c2csc(Nc3ccccc3)n2)cc1` [Compound 8e, 4-(4-Nitrophenyl)-N-phenylthiazol-2-amine], for which, at pig kidney FBPase (pig kidney FBPase), the “inhibition with nitro at R5 (in words)” value is listed as “eliminates inhibition”. As for `CC(C)Cc1sc(N)nc1-c1ccc(P(=O)(O)O)o1` [MB05032], in the experiment with human liver FBPase, the “fold better than 4c” value is “approximately 370 fold”.
